According to article PMC9317966, “Structure-function analysis of the AMPK activator SC4 and identification of a potent pan AMPK activator” (Biochemical Journal, 2022):

Key:
human GST-AMPK α1β1γ1 = target: T1, human GST-AMPK α1β1γ1 (Homo sapiens, UniProt Q13131+Q9Y478); experiment: Radiolabel SAMS kinase assay, GST-AMPK from HEK293T/17 cells immobilised on glutathione-Sepharose; type: biochemical; details: for Max. fold activation: immobilised α1β1γ1; for EC50: immobilised α1β1γ1, 0–30 µM activator
T1 construct: triply transfected with full-length AMPK α1 or α2 (NH2-terminal GST fusion, pDEST27 vector); full-length AMPK α1 or α2 (NH2-terminal GST fusion, pDEST27 vector), β1 or β2 (COOH-terminal FLAG fusion, pcDNA3.1 vector); FLAG (C); made in house; host or cells: HEK293T/17 cells, transient triple transfection
T1 sequence (Q13131 whole entry, the tested form may be a part): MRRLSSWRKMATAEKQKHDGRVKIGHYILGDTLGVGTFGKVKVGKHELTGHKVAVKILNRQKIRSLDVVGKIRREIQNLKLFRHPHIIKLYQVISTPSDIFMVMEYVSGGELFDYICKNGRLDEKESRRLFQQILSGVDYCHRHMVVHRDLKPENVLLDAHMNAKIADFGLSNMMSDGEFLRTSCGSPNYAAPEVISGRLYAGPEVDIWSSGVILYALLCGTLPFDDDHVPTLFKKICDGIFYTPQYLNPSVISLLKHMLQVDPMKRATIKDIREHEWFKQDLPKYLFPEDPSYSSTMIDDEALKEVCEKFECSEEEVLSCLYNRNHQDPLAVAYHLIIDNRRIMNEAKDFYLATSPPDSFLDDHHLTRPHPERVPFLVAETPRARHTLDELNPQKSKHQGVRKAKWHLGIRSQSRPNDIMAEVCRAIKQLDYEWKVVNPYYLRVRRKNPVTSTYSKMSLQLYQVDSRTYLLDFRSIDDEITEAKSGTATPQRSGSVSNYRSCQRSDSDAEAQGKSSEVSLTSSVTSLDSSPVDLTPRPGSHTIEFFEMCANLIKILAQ
T1 sequence (Q9Y478 whole entry, the tested form may be a part): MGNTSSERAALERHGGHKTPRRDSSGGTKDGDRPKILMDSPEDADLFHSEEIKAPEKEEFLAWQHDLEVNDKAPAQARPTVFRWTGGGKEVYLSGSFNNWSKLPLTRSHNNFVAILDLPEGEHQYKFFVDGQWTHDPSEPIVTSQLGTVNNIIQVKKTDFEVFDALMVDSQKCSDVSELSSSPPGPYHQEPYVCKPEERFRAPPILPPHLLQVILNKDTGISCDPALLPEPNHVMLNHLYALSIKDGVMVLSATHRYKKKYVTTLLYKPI
T1 sequence (P54619 whole entry partner, the tested form may be a part): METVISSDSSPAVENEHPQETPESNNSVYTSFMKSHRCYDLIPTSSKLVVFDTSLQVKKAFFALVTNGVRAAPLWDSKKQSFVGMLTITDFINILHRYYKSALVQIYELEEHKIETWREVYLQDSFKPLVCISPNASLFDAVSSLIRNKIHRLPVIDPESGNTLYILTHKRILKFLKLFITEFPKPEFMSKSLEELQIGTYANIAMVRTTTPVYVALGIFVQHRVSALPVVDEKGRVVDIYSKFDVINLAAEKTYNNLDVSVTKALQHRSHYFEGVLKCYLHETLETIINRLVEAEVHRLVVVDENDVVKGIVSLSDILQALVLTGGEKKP
Excerpt: We generated a series of compounds to investigate whether modification of the SC4 2-hydroxybiphenyl LHS fragment affects isoform selectivity, some of which (MSG008-MSG011) are presented in Table 1. We also synthesised compound MSG012 (example I-3-54 [32]), which was reported to activate α2β2γ1 with ∼100-fold greater potency compared with α1β1γ1. MSG012 differs from SC4 by substitution of the 2-hydroxyphenyl LHS fragment with 3-cyclohexen-4-yl-1-carboxylic acid, and 2-methylbenzoic acid RHS fragment with 1-hydroxy-N,N-dimethylcyclohexan-4-yl-1-carboxamide. Our initial screen involved measuring the activity of recombinant human GST-AMPK complexes expressed in HEK293T/17 cells and immobilised on glutathione-Sepharose (Supplementary Figure S1). Enzyme activity was measured by radiolabelling the synthetic SAMS peptide substrate in the absence or presence of 1 µM compound. Consistent with our previous characterisation, SC4 activated α1β1γ1, α2β1γ1 and α2β2γ1 >2.3-fold, and weakly activated α1β2γ1 1.3-fold (Figure 1A). […] The γ isoform had little influence on AMPK activation by MSG011 as most γ2 and γ3 complexes were activated >2.2-fold at 1 µM, with α1β2γ2 being the only exception (1.6-fold activation). […] Accordingly, MSG010, MSG011 and MSG012 can be classified as pan AMPK activators.
(§1) Adherent HEK293T/17 cells at ∼50% confluency were triply transfected with full-length AMPK α1 or α2 (NH2-terminal GST fusion, pDEST27 vector), β1 or β2 (COOH-terminal FLAG fusion, pcDNA3.1 vector), and γ1, γ2 or γ3 (NH2-terminal HA fusion, pMT2 vector) in the presence of FuGENE HD transfection reagent (Promega) as per the manufacturers protocol. Cells were harvested 48 hours post-transfection by first gently washing in ice cold phosphate buffered saline (PBS; Sigma–Aldrich), then scraping in ice cold lysis buffer (50 mM TRIS pH 7.5, 150 mM NaCl, 10% (v/v) glycerol, 50 mM NaF, 5 mM sodium pyrophosphate, 1% (v/v) Triton X-100, cOmplete protease inhibitor cocktail). Lysates were clarified by centrifugation (16 000g, 3 min, 4°C), flash frozen in liquid N2 and stored at −80°C until analysis. For radioactive kinase assays, AMPK was immobilised on glutathione Sepharose 4B resin (GE Healthcare) by incubation with lysates for 1.5 h at 4°C. Following centrifugation (1000g, 3 min, 4°C), the resin was washed twice in purification buffer (50 mM HEPES pH 7.4, 150 mM NaCl, 10% (v/v) glycerol, 0.02% (v/v) Tween-20), once in 50 mM HEPES pH 7.4 with 0.02% (v/v) Tween-20, then resuspended to a 50% slurry with 50 mM HEPES pH 7.4 and 10 µl added to the activity assays. For in solution kinase assays, α1β1γ1 AMPK was eluted from glutathione-Sepharose by incubating with purification buffer supplemented with 40 mM reduced glutathione (Sigma–Aldrich).
(§2) AMPK activity was determined by phosphorylation of the SAMS peptide (Purar Chemicals, sequence: NH2-HMRSAMSGLHLVKRR-COOH) in a 25 µl reaction volume containing 100 µM SAMS peptide, 5 mM MgCl2, 200 µM ATP, [γ-^32P]-ATP (PerkinElmer) and assay buffer (50 mM HEPES pH 7.4, 1 mM DTT and 0.02% (v/v) Tween-20) and purified AMPK. Phosphotransferase activity was conducted at 30°C for 10 min and reactions were quenched by spotting 15 µl onto phosphocellulose ion-exchange chromatography paper (made in-house), followed by repeated washes in 1% H3PO4 (Merck Millipore). Ultima Gold liquid scintillation fluid (5 ml; PerkinElmer) was added to vials containing dried phosphocellulose papers, and the level of ^32P-transfer to the SAMS peptide was determined using a Tri-Carb 2900TR liquid scintillation counter (PerkinElmer).

γ1AMPK complexes = experiment: Radiolabel kinase assay, immobilised GST-tagged γ1AMPK (stated across γ1 complexes); type: biochemical, human
Excerpt: We directly compared in vitro potencies of pan activators by performing radiolabel kinase assays with γ1AMPK complexes. Initially, we used GST-tagged γ1AMPK expressed in HEK293T/17 cells and immobilised on glutathione-Sepharose (Figure 2 and Table 2). […] These assays used AMPK purified from Sf9 insect cells or E. coli that was pre-treated with CaMKK2. […] However, relative to immobilised GST-α2β1γ1 from HEK293T/17 cells, His-tagged and myristoylated α2β1γ1 AMPK (expressed in E. coli, CaMKK2-treated and assayed in solution) was at least 10-fold more sensitive to activation by both MK-8722 and MSG011 (Supplementary Figure S3B), indicating the GST-affinity tag or CaMKK2 treatment may exert some influence on sensitivity to these activators.
as §1
as §2, with “Phosphotransferase activity was conducted at 30°C for 10 min and reactions were quenched by spotting 15 µl onto phosphocellulose ion-exchange chromatography paper (made in-house), followed by repeated washes in 1% H3PO4 (Merck Millipore).” left out

human GST-AMPK α1β2γ1 = target: T2, human GST-AMPK α1β2γ1 (Homo sapiens, UniProt O43741+Q13131); experiment: Radiolabel SAMS kinase assay, GST-AMPK from HEK293T/17 cells immobilised on glutathione-Sepharose; type: biochemical
T2 construct: triply transfected with full-length AMPK α1 or α2 (NH2-terminal GST fusion, pDEST27 vector); full-length AMPK α1 or α2 (NH2-terminal GST fusion, pDEST27 vector), β1 or β2 (COOH-terminal FLAG fusion, pcDNA3.1 vector); FLAG (C); made in house; host or cells: HEK293T/17 cells, transient triple transfection
T2 sequence (Q13131 whole entry, the tested form may be a part): as the sequence (Q13131 whole entry, the tested form may be a part) above
T2 sequence (O43741 whole entry, the tested form may be a part): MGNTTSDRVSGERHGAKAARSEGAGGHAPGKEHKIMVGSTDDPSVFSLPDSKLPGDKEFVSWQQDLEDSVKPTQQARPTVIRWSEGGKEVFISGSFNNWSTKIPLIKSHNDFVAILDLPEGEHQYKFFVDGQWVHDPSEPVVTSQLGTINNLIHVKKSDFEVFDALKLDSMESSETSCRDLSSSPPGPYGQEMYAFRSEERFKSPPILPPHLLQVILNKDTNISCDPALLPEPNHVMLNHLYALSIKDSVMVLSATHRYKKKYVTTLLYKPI
T2 sequence (P54619 whole entry partner, the tested form may be a part): as the sequence (P54619 whole entry partner, the tested form may be a part) above

human GST-AMPK α2β1γ1 = target: T3, human GST-AMPK α2β1γ1 (Homo sapiens, UniProt P54646+Q9Y478); experiment: as above; type: biochemical
T3 construct: triply transfected with full-length AMPK α1 or α2 (NH2-terminal GST fusion, pDEST27 vector); full-length AMPK α1 or α2 (NH2-terminal GST fusion, pDEST27 vector), β1 or β2 (COOH-terminal FLAG fusion, pcDNA3.1 vector); FLAG (C); made in house; host or cells: HEK293T/17 cells, transient triple transfection
T3 sequence (P54646 whole entry, the tested form may be a part): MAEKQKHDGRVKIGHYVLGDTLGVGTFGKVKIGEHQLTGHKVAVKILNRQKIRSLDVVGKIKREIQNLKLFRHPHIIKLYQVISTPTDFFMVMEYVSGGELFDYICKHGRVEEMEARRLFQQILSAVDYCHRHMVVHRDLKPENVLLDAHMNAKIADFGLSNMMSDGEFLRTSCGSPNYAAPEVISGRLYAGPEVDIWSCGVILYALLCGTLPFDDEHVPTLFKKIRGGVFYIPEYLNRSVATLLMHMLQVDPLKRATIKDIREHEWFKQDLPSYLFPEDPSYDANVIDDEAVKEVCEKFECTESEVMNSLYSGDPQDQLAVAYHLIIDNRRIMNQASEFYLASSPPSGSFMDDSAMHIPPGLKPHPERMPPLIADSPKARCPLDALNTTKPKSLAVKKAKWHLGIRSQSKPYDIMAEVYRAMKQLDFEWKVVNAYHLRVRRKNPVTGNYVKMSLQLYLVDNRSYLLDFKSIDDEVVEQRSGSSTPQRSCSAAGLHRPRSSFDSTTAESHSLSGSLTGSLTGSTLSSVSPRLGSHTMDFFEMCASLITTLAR
T3 sequence (Q9Y478 whole entry, the tested form may be a part): as the sequence (Q9Y478 whole entry, the tested form may be a part) above
T3 sequence (P54619 whole entry partner, the tested form may be a part): as the sequence (P54619 whole entry partner, the tested form may be a part) above

human GST-AMPK α2β2γ1 = target: T4, human GST-AMPK α2β2γ1 (Homo sapiens, UniProt O43741+P54646); experiment: as above; type: biochemical
T4 construct: triply transfected with full-length AMPK α1 or α2 (NH2-terminal GST fusion, pDEST27 vector); full-length AMPK α1 or α2 (NH2-terminal GST fusion, pDEST27 vector), β1 or β2 (COOH-terminal FLAG fusion, pcDNA3.1 vector); FLAG (C); made in house; host or cells: HEK293T/17 cells, transient triple transfection
T4 sequence (P54646 whole entry, the tested form may be a part): as the sequence (P54646 whole entry, the tested form may be a part) above
T4 sequence (O43741 whole entry, the tested form may be a part): as the sequence (O43741 whole entry, the tested form may be a part) above
T4 sequence (P54619 whole entry partner, the tested form may be a part): as the sequence (P54619 whole entry partner, the tested form may be a part) above

α2β2γ1 AMPK = tested on: α2β2γ1 AMPK; parameters: method as in earlier work; details: reported for example I-3-54; cited from earlier work

## OCC1(c2ccc(-c3cc4nc(O[C@@H]5CO[C@H]6[C@@H]5OC[C@H]6O)[nH]c4cc3Cl)cc2)CC1 [PF-739, reference compound]
Human GST-AMPK α1β1γ1
  Max. fold activation: 1.7 fold
  EC50: 2010 nM
γ1AMPK complexes; compared with refs 17, 18
  EC50 fold higher than previously determined by high-throughput fluorescence-based assays in solution: 100–1000 fold
γ1AMPK complexes; immobilised GST-γ1AMPK, read-out: EC50 values for γ1AMPK activation
  EC50: 2000 nM

## CN(C)C(=O)C1(O)CCC(Oc2nc3nc(-c4ccc(C5=CCC(C(=O)O)CC5)cc4)c(Cl)cc3[nH]2)CC1 (stereo not shown) [MSG012, 4′-(6-Chloro-2-(((1s,4s)-4-(dimethylcarbamoyl)-4-hydroxycyclohexyl)oxy)-1H-imidazo[4,5-b]pyridin-5-yl)-2,3,4,5-tetrahydro-[1,1′-biphenyl]-4-carboxylic acid]
Human GST-AMPK α1β1γ1
  Max. fold activation: 1.9 fold
  EC50: 103 nM
Human GST-AMPK α1β2γ1; immobilised α1β2γ1
  Max. fold activation: 1.9 fold
Human GST-AMPK α1β2γ1; immobilised α1β2γ1, 0–30 µM activator
  EC50: 232 nM
Human GST-AMPK α2β1γ1; immobilised α2β1γ1
  Max. fold activation: 6.1 fold
Human GST-AMPK α2β1γ1; immobilised α2β1γ1, 0–30 µM activator
  EC50: 332 nM
Human GST-AMPK α2β2γ1; immobilised α2β2γ1
  Max. fold activation: 2.9 fold
Human GST-AMPK α2β2γ1; immobilised α2β2γ1, 0–30 µM activator
  EC50: 328 nM
α2β2γ1 AMPK
  greater potency for α2β2γ1 compared with α1β1γ1: ~100 fold
